Marks after values point to notes of the source that are not given here.
Legend:
[1] = system: Soy plants; assay: Growth tests after foliar spray, soy; format: in vivo; conditions: for growth, dry biomass and fresh mass (text summary of Table 21): foliar spray; for Dry biomass increase (%) / Fresh mass increase (%) / Growth increase (%): soy, 14 days
Protocol: Soy seeds (or corn seeds, as indicated) were planted in flats with 2 seeds per cell within the flat at a greenhouse facility. The seeds were allowed to germinate and the smaller plant is culled, leaving one plant per cell. Once the first true leaves are fully expanded and the second leaves are beginning to expand, the plants were initially measured for height. This was performed by stretching the highest leaf upward and measuring the distance to the soil. Peptides were dissolved in water at the indicated concentrations (Table 21 below). The plants were then treated with a foliar spray using widely available spray bottles until liquid was dripping from the leaves. Six flats of 14 plants each were treated per condition (peptide or control). Designated untreated control plants were sprayed with water. The plants were allowed to grow for 14 days. The height of the plants was again measured and compared to the original height to quantify growth. Finally, the plants were harvested by removing the shoots (all above-ground material). For some experiments, this was weighed upon harvesting to determine the fresh mass (including water weight). The shoots were then dried at 70° C. for 72 hours, and again weighed to determine dry biomass. Although this method uses a similar measure (growth) as in Example 3 above, the treatment method is different (seed soak vs. foliar spray). As a result, the experimental outcomes may diverge.

[2] = system: soybean seeds; assay: Root & shoot growth analysis after seed soak, soy; format: in vivo; conditions: for root growth (text summary of Table 20) / shoot growth (Table 20): seed soak; for shoot growth (Table 20): p14a soy at 0.2 μg/ml; for Root (root growth index, percentage increase over untreated control) / Shoot (shoot length, percentage increase over untreated control): soy, 12-14 days
Protocol: Peptides were tested for biological effects on the allocation of growth resources to the shoot (above ground) and root (below ground). Peptides were dissolved at 0.2, 2, or 5 μg/ml in a total volume of 100 ml deionized water. Corn or soybean seeds were then soaked for one hour in the peptide solution. Untreated control (UTC) plants were soaked in deionized water. Clear plastic 300 ml beverage cups (Solo®, Dart Container Corporation) were prepared for planting by marking the bottom with a cross, dividing the bottom into four equal quadrants. The cups were then filled with Sunshine Mix #1 soil (SunGro Horticulture) sieved to ¼″. 100 ml of water was added to the soil. Treated seeds were then planted by pressing the seed lightly into the top of the soil. The seeds were then covered with an additional 50 ml of loose soil. Seeds were allowed to germinate and grow for 12-14 days.
The length of the shoot was measured as the distance from the soil to the lightly stretched tip of the highest leaf for each plant. […] Stunting was defined as lacking a fully expanded true leaf at time of data collection or having an expanded true leaf judged by eye to be <½ the average leaf area of the treatment group. Generally, 30 seeds were planted per treatment group and 15-25 plants were used for data collection.
Root growth was estimated by counting the number of times that a primary root crosses the quadrant marks on the bottom of the cup. These were often observed along the bottom circumference of the cup, although some were visible along the side of the container and were counted as if crossing a vertical extension of the quadrant line. This number was divided by 4 to produce a root growth index.
Each number indicates the percentage increase over the untreated control values.

[3] = system: tobacco mosaic virus (TMV); assay: Induction of resistance to tobacco mosaic virus in tobacco; format: in vivo; conditions: for Effectiveness Covered (%) (decline in TMV lesions vs UTC, systemic response) / Effectiveness Uncovered (%) (decline in TMV lesions vs UTC, local response): TMV 3 days post-treatment, scored 3 days after inoculation; for TMV response / effectiveness against TMV infection (summary of Table 22): foliar spray
[4] = system: tobacco plants (leaf tissue discs); assay: Peroxide response, ferric-xylenol orange assay on tobacco leaf discs; format: cell-based; conditions: 0.5 ug/ml peptide, one hour, absorbance at 595 nm vs blank
Protocol: The ferric-xylenol orange complex assay for hydrogen peroxide (Gay et al., Analytical Biochemistry 273:149-55 (1999), which is hereby incorporated by reference in its entirety) was used to determine peroxide production by plant leaf tissue. Briefly, reagent A was prepared by mixing 10 mg of ferrous ammonium sulfate with 133 uL of sulfuric acid in a total volume of 1 mL with water. Reagent B was prepared by mixing 2 g of sorbitol with 9.34 mg of xylenol orange in 80 ml of water. 1M hydrochloric acid was slowly added until the solution turned yellow. The solution was then diluted with water to a total volume of 100 mL, and stored in a dark bottle at 4° C.
Leaves from either tobacco plants (plants grown to 6 true leaves) or soy plants (plants grown to 6 true leaves) were used for the assay. The leaf was first removed from the plant and placed on a paper towel. 0.5 cm leaf tissue circles were then removed from the leaf using a leather punch tool. These discs were then placed into the wells of a 96-well plate. […] of water was added to each disc. The plate was covered with parafilm and rested for 12 hours in the dark. The excess water was then removed and the wells washed with an additional 250 uL of water. The washes were then removed from the wells and replaced with 105 uL of a 0.5 ug/ml solution of peptide in water or water blank, generally in quadruplicate. Where peptide solubility was a problem, pH buffer was added to both the blank and peptide samples. Leaf discs were incubated with the peptides for one hour under fluorescent lighting. 50 ul of the solution from each leaf sample was removed to a new well for chemical analysis.
Just prior to analysis, reagents A and B were freshly mixed in a 1:100 ratio to produce the assay reagent. 200 ul of this mixture was added to each well containing 50 ul of leaf-treated solution. The plate was incubated in the dark for 20 minutes and the absorbance at 595 nm was detected. Results were analyzed using a two-tailed Student's T-test. The results were divided into several response classes. XR++ indicated a positive response with absorbance >0.05 units above the negative control and a Student's T-test p<0.05. XR+ indicated an absorbance <0.05 units above the blank and a Student's T-test p<0.05. XR weak indicated a response >0.02 units above the negative control with a p-value that was not significant. XR− indicated an absorbance within 0.02 units of the negative control. It should be noted that there can be significant biological variability in the peroxide response due to plant age, location of the disc within the leaf, and other factors. As a result, p-values from the T-test are a guide and not an absolute inclusion criterion.

## ANNQDPMQALMQLLEDLV (P14a)
[1]
  growth, dry biomass and fresh mass (text summary of Table 21): increases for all 3 measures
[1]; listed as p14a
  growth, dry biomass and fresh mass (text summary of Table 21): increases in growth and dry biomass
[1]; foliar spray 0.2 ug/ml
  Dry biomass increase (%): 12.6%
  Fresh mass increase (%): 46.8%
  Growth increase (%): 14.7%
[1]; foliar spray 2.0 ug/ml
  Dry biomass increase (%): 11.0%
  Fresh mass increase (%): 57.9%
  Growth increase (%): 3.4%
[1]; foliar spray 5.0 ug/ml
  Dry biomass increase (%): 10.6%
  Fresh mass increase (%): 83.3%
  Growth increase (%): 8.9%
[2]
  root growth (text summary of Table 20): Increased root growth
  shoot growth (Table 20): increased shoot growth
[2]; seed soak 0.2 μg/ml
  Root (root growth index, percentage increase over untreated control): −2.7%
  Shoot (shoot length, percentage increase over untreated control): 8.7%*
[2]; seed soak 5.0 μg/ml
  Root (root growth index, percentage increase over untreated control): 10.3%*
  Shoot (shoot length, percentage increase over untreated control): −3.5%

## QAGPQSANKTGNVDDANNQDPEQALEQLLEDLV (P14-22E,26E)
[3]; spray 20 ug/ml
  Effectiveness Covered (%) (decline in TMV lesions vs UTC, systemic response): 62%
  Effectiveness Uncovered (%) (decline in TMV lesions vs UTC, local response): 74* %
[4]
  Peroxide Response, Tobacco: Weak+

## QAGPQSANKTGNVDDANNQDPLQALEQLLEDLV (P14-22L,26E)
[3]; spray 20 ug/ml
  Effectiveness Covered (%) (decline in TMV lesions vs UTC, systemic response): 91* %
  Effectiveness Uncovered (%) (decline in TMV lesions vs UTC, local response): 70* %
[4]
  Peroxide Response, Tobacco: Weak+

## QAGPQSANKTGNVDDANNQDPMQALMQLL (P14-dc4)
[1]
  growth, dry biomass and fresh mass (text summary of Table 21): lose the significant growth, dry biomass, and fresh mass benefits
[1]; foliar spray 0.2 ug/ml
  Dry biomass increase (%): 5.6%
  Fresh mass increase (%): 7.5%
  Growth increase (%): 2.6%
[1]; foliar spray 2.0 ug/ml
  Dry biomass increase (%): −1.6%
  Fresh mass increase (%): 0.4%
  Growth increase (%): −4.6%
[1]; foliar spray 5.0 ug/ml
  Dry biomass increase (%): −7.6%
  Fresh mass increase (%): −15.4%
  Growth increase (%): −17%
[3]
  TMV response / effectiveness against TMV infection (summary of Table 22): reduced effectiveness against TMV infection
[3]; spray 10 ug/ml
  Effectiveness Covered (%) (decline in TMV lesions vs UTC, systemic response): 19%
  Effectiveness Uncovered (%) (decline in TMV lesions vs UTC, local response): 34%

## QAGPQSANKTGNVDDANNQDPMQALMQLLEDLV (P14)
[1]
  growth, dry biomass and fresh mass (text summary of Table 21): increases in growth and dry biomass
[1]; foliar spray 2.0 ug/ml
  Dry biomass increase (%): 1.6%
  Growth increase (%): 25.8%
[1]; foliar spray 5.0 ug/ml
  Dry biomass increase (%): 3%
  Growth increase (%): 31.4%
[4]
  Peroxide Response, Tobacco: Weak+
[2]
  root growth (text summary of Table 20): Increased root growth
[2]; seed soak 5.0 μg/ml
  Root (root growth index, percentage increase over untreated control): 24.9%*
  Shoot (shoot length, percentage increase over untreated control): 4.4%

## SEEEEELEQLLEDLVKLL (P14-32)
[1]
  growth, dry biomass and fresh mass (text summary of Table 21): increases in growth and dry biomass
[1]; foliar spray 0.2 ug/ml
  Dry biomass increase (%): 6.8%
  Fresh mass increase (%): 2.9%
  Growth increase (%): 9.5%
[1]; foliar spray 2.0 ug/ml
  Dry biomass increase (%): 8.2%
  Fresh mass increase (%): 27.6%
  Growth increase (%): 1.7%
[1]; foliar spray 5.0 ug/ml
  Dry biomass increase (%): 14%
  Fresh mass increase (%): 33.3%
  Growth increase (%): 12.5%
[3]; spray 20 ug/ml
  Effectiveness Covered (%) (decline in TMV lesions vs UTC, systemic response): 82* %
  Effectiveness Uncovered (%) (decline in TMV lesions vs UTC, local response): 90* %

## SEEELQQLLKLFSEIL (P3-5)
[3]; spray 10 ug/ml
  Effectiveness Covered (%) (decline in TMV lesions vs UTC, systemic response): 94* %
  Effectiveness Uncovered (%) (decline in TMV lesions vs UTC, local response): 66%
[4]
  Peroxide Response, Tobacco: Weak +

## SQGISEKQLDQDLSQLIQALLQP (P4-14S-12D)
[1]; foliar spray 5.0 ug/ml
  Dry biomass increase (%): −3.6%
  Growth increase (%): −4.2%
[3]
  TMV response / effectiveness against TMV infection (summary of Table 22): produced the best results
[3]; spray 5.0 ug/ml
  Effectiveness Covered (%) (decline in TMV lesions vs UTC, systemic response): 60* %
  Effectiveness Uncovered (%) (decline in TMV lesions vs UTC, local response): 61* %

## SQGISEKQLDQLDSQLIQALLQP (P4-14S-13D)
[4]
  Peroxide Response, Tobacco: Weak+

## SQGISEKQLDQLFSQLIQALLQP (P4-14S-13F)
[4]
  Peroxide Response, Tobacco: Weak+

## SQGISEKQLDQLLSQLIQASLQP (P4-14S-20S)
[3]
  TMV response / effectiveness against TMV infection (summary of Table 22): weaker TMV responses
[3]; spray 10 ug/ml
  Effectiveness Covered (%) (decline in TMV lesions vs UTC, systemic response): −45%
  Effectiveness Uncovered (%) (decline in TMV lesions vs UTC, local response): 59* %
[2]
  shoot growth (Table 20): increased shoot growth
[2]; seed soak 5.0 μg/ml
  Root (root growth index, percentage increase over untreated control): 2.2%
  Shoot (shoot length, percentage increase over untreated control): 5.8%*

## SQGISEKQLDQLLSQLIQAVLQP (P4-14S-20V)
[3]
  TMV response / effectiveness against TMV infection (summary of Table 22): weaker TMV responses
[3]; spray 10 ug/ml
  Effectiveness Covered (%) (decline in TMV lesions vs UTC, systemic response): −29%
  Effectiveness Uncovered (%) (decline in TMV lesions vs UTC, local response): −26%

## SQGISEKQLDQLLSQLI_ALLQP (SQGISEKQLDQLLSQLIALLQP; P4-d18)
[3]; spray 10 ug/ml
  Effectiveness Covered (%) (decline in TMV lesions vs UTC, systemic response): 15%
  Effectiveness Uncovered (%) (decline in TMV lesions vs UTC, local response): 65%

## SQGISEKQLDQLLSQSIQALLQP (P4-14S-16S)
[3]; spray 10 ug/ml
  Effectiveness Covered (%) (decline in TMV lesions vs UTC, systemic response): 46%
  Effectiveness Uncovered (%) (decline in TMV lesions vs UTC, local response): 72* %
[2]; listed as P4-14s-16s
  root growth (text summary of Table 20): strong shift in resource allocation to root growth
[2]; listed as p4-14s-16s
  root growth (text summary of Table 20): Increased root growth
[2]; seed soak 0.2 μg/ml
  Root (root growth index, percentage increase over untreated control): 28.3%
  Shoot (shoot length, percentage increase over untreated control): −2.0%
[2]; seed soak 2.0 μg/ml
  Root (root growth index, percentage increase over untreated control): 28.3%*
  Shoot (shoot length, percentage increase over untreated control): −11.3%

## SQGISEKQLDQLLSQVIQALLQP (P4-14S-16V)
[3]
  TMV response / effectiveness against TMV infection (summary of Table 22): produced the best results
[3]; spray 10 ug/ml
  Effectiveness Covered (%) (decline in TMV lesions vs UTC, systemic response): 85* %
  Effectiveness Uncovered (%) (decline in TMV lesions vs UTC, local response): 78%

## SQGISEKQLDQLQSQLIQALLQP (P4-14S-13Q)
[3]; spray 10 ug/ml
  Effectiveness Covered (%) (decline in TMV lesions vs UTC, systemic response): 61* %
  Effectiveness Uncovered (%) (decline in TMV lesions vs UTC, local response): 40%
[4]
  Peroxide Response, Tobacco: Weak+

## SQGISEKQL_QLL_QLI_ALLQP (SQGISEKQLQLLQLIALLQP; P4-d10,14,18)
[3]
  TMV response / effectiveness against TMV infection (summary of Table 22): moderate reduction in effectiveness against TMV infection
[3]; spray 10 ug/ml
  Effectiveness Covered (%) (decline in TMV lesions vs UTC, systemic response): 37%
  Effectiveness Uncovered (%) (decline in TMV lesions vs UTC, local response): 55%

## SQGISEKQSDQLLSQLIQALLQP (P4-14S-9S)
[4]
  Peroxide Response, Tobacco: Weak+

Reference: patent publication US10524472B2, “Elicitor peptides having disrupted hypersensitive response box and use thereof” (Plant Health Care, Inc., priority 2014, dated 2020)
